Here are results for 17 molecules from patent US11458123B2 (Arvinas, Inc., priority 2016, dated 2022).

The subject of this assay is tau protein. The assay can be described thus: Tau protein in vitro degradation assay (Western blot, Tau-13 antibody). The assay is classed as cell-based, human. To be noted: SK-N-SH cells, 72 hours of incubation; for Degradation activity* (highest amount of degradation observed at any dosage; tau protein remaining) / Degradation activity (tau protein remaining; highest amount of degradation observed at any dosage): tested at 300 nM, 100 nM, 33 nM and 11 nM, Western blot, Tau-13 antibody; for Activity* (highest amount of degradation observed at any dosage, as tau protein remaining): tested at 1000 nM, 300 nM and 100 nM. In outline: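 SK-N-SH cells, seeded ≥18 h beforehand, were incubated 72 h with tau PROTACs at 1000, 300 and 100 nM or at 300, 100, 33 and 11 nM. Lysates in protease-inhibitor buffer were resolved by SDS-PAGE; tau quantified by Western blot with Tau-13 antibody recognising all human tau forms.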

For `Cn1c2ccncc2c2ccc(-c3ccc(O[C@H]4C[C@H](Oc5ccnc(OCCCCCCOc6ccc7c(c6)C(=O)N(C6CCC(=O)NC6=O)C7=O)c5)C4)nc3)cc21` (some centres unmarked) [Compound 109, 2-(2,6-dioxopiperidin-3-yl)-5-((6-((4-((1r,3r)-3-((5-(5-methyl-5H-pyrido[4,3-b]indol-7-yl)pyridin-2-yl)oxy)cyclobutoxy)pyridin-2-yl)oxy)hexyl)oxy)isoindoline-1,3-dione], the “Degradation activity* (highest amount of degradation observed at any dosage; tau protein remaining)” value is on record as “C (>80% tau protein remaining after 72 hours of incubation with the test compound)”.
On to `Cc1ncsc1-c1ccc(CNC(=O)[C@@H]2C[C@@H](O)CN2C(=O)[C@@H](NC(=O)COCCOCCOc2ccc3nc(-c4ccc(N(C)C)cc4)ccc3c2)C(C)(C)C)cc1` [Compound 27, (2S,4R)-1-((S)-2-(2-(2-(2-(2-(4-(dimethylamino)phenyl)quinolin-6-yloxy)ethoxy)ethoxy)acetamido)-3,3-dimethylbutanoyl)-4-hydroxy-N-(4-(4-methylthiazol-5-yl)benzyl)pyrrolidine-2-carboxamide], for which the “Activity* (highest amount of degradation observed at any dosage, as tau protein remaining)” value is on record as “C (>80% tau protein remaining after 72 hours of incubation with the test compound)”.
As to `Cn1c2ccncc2c2ccc(-c3ccc(OCC#CCOCCCCOCCCCOc4ccc5c(c4)C(=O)N(C4CCC(=O)NC4=O)C5=O)nc3)cc21` (centres unmarked) [Compound 90, 2-(2,6-dioxopiperidin-3-yl)-5-(4-(4-((4-((5-(5-methyl-5H-pyrido[4,3-b]indol-7-yl)pyridin-2-yl)oxy)but-2-yn-1-yl)oxy)butoxy)butoxy)isoindoline-1,3-dione], the “Degradation activity* (highest amount of degradation observed at any dosage; tau protein remaining)” value is “A (≤50% tau protein remaining after 72 hours of incubation with the test compound)”.
Regarding `Cn1c2ccncc2c2ccc(-c3ccc(OCCOCCOCCOCCOCCOc4ccc5c(c4)C(=O)N(C4CCC(=O)NC4=O)C5=O)nc3C(F)(F)F)cc21` (centres unmarked) [Compound 143, 2-(2,6-dioxopiperidin-3-yl)-5-((14-((5-(5-methyl-5H-pyrido[4,3-b]indol-7-yl)-6-(trifluoromethyl)pyridin-2-yl)oxy)-3,6,9,12-tetraoxatetradecyl)oxy)isoindoline-1,3-dione], the “Degradation activity* (highest amount of degradation observed at any dosage; tau protein remaining)” value was “B (≤80% and >50% tau protein remaining after 72 hours of incubation with the test compound)”.
Turning to `O=C1CCC(N2C(=O)c3cccc(NCCOCCOCCOCCOCCN4CCN(c5ccn6c(n5)nc5ccccc56)CC4)c3C2=O)C(=O)N1` (centres unmarked) [Compound 26, 4-((14-(4-(benzo[4,5]imidazo[1,2-a]pyrimidin-2-yl)piperazin-1-yl)-3,6,9,12-tetraoxatetradecyl)amino)-2-(2,6-dioxopiperidin-3-yl)isoindoline-1,3-dione], the “Activity* (highest amount of degradation observed at any dosage, as tau protein remaining)” value was “C (>80% tau protein remaining after 72 hours of incubation with the test compound)”.
The same measure, in the same setting: in the case of `O=C1CCC(N2C(=O)c3cccc(NCCOCCOCCOc4ccc(-c5ccc6c(c5)[nH]c5ccncc56)cn4)c3C2=O)C(=O)N1` (centres unmarked) [Compound 3, 4-(2-(2-(2-(5-(5H-pyrido[4,3-b]indol-7-yl)pyridin-2-yloxy)ethoxy)ethoxy)ethylamino)-2-(2,6-dioxopiperidin-3-yl)isoindoline-1,3-dione] it was “A (≤50% tau protein remaining after 72 hours of incubation with the test compound)”.
For `O=C1CCC(N2C(=O)c3ccc(OCCCCCOC4CCN(C(=O)[C@H]5C[C@H](Oc6ccc(-c7ccc8c(c7)[nH]c7ccncc78)cn6)C5)CC4)cc3C2=O)C(=O)N1` (some centres unmarked) [Compound 165, 5-((5-((1-((1r,3r)-3-((5-(5H-pyrido[4,3-b]indol-7-yl)pyridin-2-yl)oxy)cyclobutane-1-carbonyl)piperidin-4-yl)oxy)pentyl)oxy)-2-(2,6-dioxopiperidin-3-yl)isoindoline-1,3-dione], the “Degradation activity* (highest amount of degradation observed at any dosage; tau protein remaining)” value is reported as “C (>80% tau protein remaining after 72 hours of incubation with the test compound)”.
For `Cn1c2ccncc2c2ccc(-c3ccc(O[C@H]4C[C@H](Oc5ccc(CCCCCCOc6ccc7c(c6)C(=O)N(C6CCC(=O)NC6=O)C7=O)cn5)C4)nc3)cc21` (some centres unmarked) [Compound 110, 2-(2,6-dioxopiperidin-3-yl)-5-((6-(6-((1r,3r)-3-((5-(5-methyl-5H-pyrido[4,3-b]indol-7-yl)pyridin-2-yl)oxy)cyclobutoxy)pyridin-3-yl)hexyl)oxy)isoindoline-1,3-dione], the “Degradation activity* (highest amount of degradation observed at any dosage; tau protein remaining)” value is given as “C (>80% tau protein remaining after 72 hours of incubation with the test compound)”.
With `O=C1CCC(N2C(=O)c3ccc(OCCOCCOCCOCCOCCOc4ccc(-c5ccc6c7cnccc7n(CC(F)(F)F)c6c5)cn4)cc3C2=O)C(=O)N1` (centres unmarked) [Compound 88, 2-(2,6-dioxopiperidin-3-yl)-5-((14-((5-(5-(2,2,2-trifluoroethyl)-5H-pyrido[4,3-b]indol-7-yl)pyridin-2-yl)oxy)-3,6,9,12-tetraoxatetradecyl)oxy)isoindoline-1,3-dione], the “Degradation activity* (highest amount of degradation observed at any dosage; tau protein remaining)” value is “A (≤50% tau protein remaining after 72 hours of incubation with the test compound)”.
On the same count and under the same terms, in the case of `Cn1c2ccncc2c2ccc(-c3ccc(O[C@H]4C[C@H](OC5CCN(c6cc(OCCOc7ccc8c(c7)C(=O)N(C7CCC(=O)NC7=O)C8=O)cnn6)CC5)C4)nc3)cc21` (some centres unmarked) [Compound 158, 2-(2,6-dioxopiperidin-3-yl)-5-(2-((6-(4-((1r,3r)-3-((5-(5-methyl-5H-pyrido[4,3-b]indol-7-yl)pyridin-2-yl)oxy)cyclobutoxy)piperidin-1-yl)pyridazin-4-yl)oxy)ethoxy)isoindoline-1,3-dione] it was “C (>80% tau protein remaining after 72 hours of incubation with the test compound)”.
Turning to `O=C1CCC(N2C(=O)c3ccc(OCCCCCN4CCN(CCO[C@H]5C[C@H](Oc6ccc(-c7ccc8c(c7)[nH]c7ccncc78)cn6)C5)CC4)cc3C2=O)C(=O)N1` (some centres unmarked) [Compound 59, 5-((5-(4-(2-((1r,3r)-3-((5-(5H-pyrido[4,3-b]indol-7-yl)pyridin-2-yl)oxy)cyclobutoxy)ethyl)piperazin-1-yl)pentyl)oxy)-2-(2,6-dioxopiperidin-3-yl)isoindoline-1,3-dione], the “Degradation activity* (highest amount of degradation observed at any dosage; tau protein remaining)” value is reported as “C (>80% tau protein remaining after 72 hours of incubation with the test compound)”.
With `Cc1ncsc1-c1ccc(CNC(=O)[C@@H]2C[C@@H](O)CN2C(=O)[C@@H](NC(=O)COCCOCCOCC(=O)N2CCN(c3ccn4c(n3)nc3ccccc34)CC2)C(C)(C)C)cc1` [Compound 10], the “Activity* (highest amount of degradation observed at any dosage, as tau protein remaining)” value is given as “C (>80% tau protein remaining after 72 hours of incubation with the test compound)”.
For `Cn1c2ccncc2c2ccc(-c3ccc(O[C@H]4C[C@H](OCCOCCOC5CC6(C5)CN(c5ccc7c(c5)C(=O)N(C5CCC(=O)NC5=O)C7=O)C6)C4)nc3)cc21` (some centres unmarked) [Compound 213, 2-(2,6-dioxopiperidin-3-yl)-5-(6-(2-(2-((1r,3r)-3-((5-(5-methyl-5H-pyrido[4,3-b]indol-7-yl)pyridin-2-yl)oxy)cyclobutoxy)ethoxy)ethoxy)-2-azaspiro[3.3]heptan-2-yl)isoindoline-1,3-dione], the “Degradation activity (tau protein remaining; highest amount of degradation observed at any dosage)” value is “C (>80% tau protein remaining after 72 hours of incubation with the test compound)”.
For `O=C1CCC(N2C(=O)c3cccc(NCCOCCOCCOCCOCC(=O)N4CCN(c5ccn6c(n5)nc5ccccc56)CC4)c3C2=O)C(=O)N1` (centres unmarked) [Compound 42, 4-((14-(4-(benzo[4,5]imidazo[1,2-a]pyrimidin-2-yl)piperazin-1-yl)-14-oxo-3,6,9,12-tetraoxatetradecyl)amino)-2-(2,6-dioxopiperidin-3-yl)isoindoline-1,3-dione], the “Activity* (highest amount of degradation observed at any dosage, as tau protein remaining)” value was “C (>80% tau protein remaining after 72 hours of incubation with the test compound)”.
Turning to `Cn1c2ccncc2c2ccc(-c3cnc(OCCOCCOCCOCCOCCOc4ccc5c(c4)C(=O)N(C4CCC(=O)NC4=O)C5=O)c(F)c3)cc21` (centres unmarked) [Compound 139, 2-(2,6-dioxopiperidin-3-yl)-5-((14-((3-fluoro-5-(5-methyl-5H-pyrido[4,3-b]indol-7-yl)pyridin-2-yl)oxy)-3,6,9,12-tetraoxatetradecyl)oxy)isoindoline-1,3-dione], the “Degradation activity* (highest amount of degradation observed at any dosage; tau protein remaining)” value is “B (≤80% and >50% tau protein remaining after 72 hours of incubation with the test compound)”.
In the case of `Cn1c2ccncc2c2ccc(-c3ccc(O[C@H]4C[C@H](OCCOCCOCCOC5CN(c6ccc7c(c6)C(=O)N(C6CCC(=O)NC6=O)C7=O)C5)C4)nc3)cc21` (some centres unmarked) [Compound 161, 2-(2,6-dioxopiperidin-3-yl)-5-(3-(2-(2-(2-((1r,3r)-3-((5-(5-methyl-5H-pyrido[4,3-b]indol-7-yl)pyridin-2-yl)oxy)cyclobutoxy)ethoxy)ethoxy)ethoxy)azetidin-1-yl)isoindoline-1,3-dione], the “Degradation activity* (highest amount of degradation observed at any dosage; tau protein remaining)” value is “C (>80% tau protein remaining after 72 hours of incubation with the test compound)”.
Regarding `O=C1CCC(N2C(=O)c3ccc(OCC#Cc4ccc(O[C@H]5C[C@@H](Oc6ccc(-c7ccc8c(c7)[nH]c7ccncc78)cn6)C5)cn4)cc3C2=O)C(=O)N1` (some centres unmarked) [Compound 183, 5-((3-(5-((1s,3 s)-3-((5-(5H-pyrido[4,3-b]indol-7-yl)pyridin-2-yl)oxy)cyclobutoxy)pyridin-2-yl)prop-2-yn-1-yl)oxy)-2-(2,6-dioxopiperidin-3-yl)isoindoline-1,3-dione], the “Degradation activity (tau protein remaining; highest amount of degradation observed at any dosage)” value is on record as “A (≤50% tau protein remaining after 72 hours of incubation with the test compound)”.
